Earlier results as cited in publication PMC4148150 (Journal of Medicinal Chemistry, 2014).

Settings: mice, oral dosing

For CC(=O)N1CCC(NC(=O)NC23CC4CC(CC(C4)C2)C3)CC1 [APAU, 1-(1-acetypiperidin-4-yl)-3-adamantanylurea], the PK-AUC is listed as 183 nM·h.

For CS(=O)(=O)N1CCC(NC(=O)Nc2ccc(OC(F)(F)F)cc2)CC1 [TUPS, 1-(1-methylsulfonyl-piperidin-4-yl)-3-(4-trifluoromethoxyphenyl)-urea], the PK-AUC is listed as 5300 nM·h.
